Columns and labels:
[1] = test system: Streptococcus mutans 6715 strain; test: Organic acid formation from saccharides by Streptococcus mutans cells, pH-measurement (Experiment 4); assay type: cell-based; settings: 37° C., 30 minutes; for pH-Level of the reaction mixture (organic acid formation): cell suspension, Stephan's buffer (pH 7.0), saccharide solution; for organic acid formation from the saccharide: Streptococcus mutans 6715 cells
Protocol: Organic acid formation from some saccharides by Streptococcus mutans was tested: Streptococcus mutans 6715 strain was cultivaed similarly as in EXPERIMENT 1, and the cells, obtained by centrifuging the culture, were washed with 0.9 w/v % sodium chloride solution, followed by additional centrifugation. Two ml of a mixture solution, consisting of 0.2 ml of the cell suspension, prepared from about 100 ml of the culture, 1.5 ml of Stephan's buffer, and 0.3 ml aqueous solution of each saccharide as listed in TABLE II, was incubated at 37° C. for 30 minutes, followed by pH-measurement of the reaction mixture. The Stephan's buffer was prepared by the method as reported by R. M. Stephan et al., Journal of Dental Research, Vol.26, pp.15-41 (1947): One ml of Solution I, prepared by dissolving 17.89 g Na2 HPO4. 12H2 O, 7.92 g KOH and 6.81 g KH2 PO4 in water to give a final volume of 100 ml, was placed in a 100-ml volumetric flask, and mixed with about 90 ml of water. To the flask was added 1 ml of Solution II, prepared by dissolving 4.54 g KH2 PO4, 0.32 g MgSO4.7H2 O, 0.57 g CaSO4.2H2 O and 10 ml of 3.5% hydrochloric acid solution in water to give a final volume of 100 ml. This mixture was diluted with additional water to obtain 100 ml of Stephan's buffer (pH 7.0).
The results are given in TABLE II, wherein the organic acid formation from the saccharides can be estimated by the pH-values.

[2] = target: T1, water-insoluble glucan producing enzyme (Streptococcus downei, UniProt P27470); test: Effect of saccharides on formation of water-insoluble glucan from sucrose (Experiment 3); assay type: biochemical, Streptococcus mutans 6715 strain; settings: 1 ml 4 w/v % sucrose plus 1 ml 4 w/v % saccharide, 0.02 units enzyme, 37° C., 16 hours; for A: amounts of water-insoluble glucan formed: sucrose control 300
T1 construct: endogenous in cells; host or cells: Streptococcus mutans 6715 strain (today S. sobrinus), culture supernatant, ammonium sulfate precipitate, dialyzed
Protocol: After completion of the cultivation, the culture was separated into cell precipitant and supernatant. Thereafter, to the supernatant was added with ammonium sulfate to give 60% saturation, and the resultant precipitant was dialyzed against 0.1M phosphate buffer (pH 7.2) to obtain an aqueous solution containing the enzyme.
The titers of the enzyme were assayed as follows: A mixture solution, consisting of 1 ml of 0.2M aqueous sucrose solution, 1 ml of water, 1 ml of 0.1M phosphate buffer containing 0.05 w/v % NaN3, and 0.5 ml of the enzyme solution (below 0.05 units), is incubated at 37° C. for 9 hours, followed by centrifugation of the reaction mixture. The resultant precipitant is mixed with 4 ml of 0.5N sodium hydroxide solution, and then incubated at this temperature for an additional one hour to dissolve the precipitant. The amount of water-insoluble glucan formed during the enzymatic reaction is then measured. One unit of the enzyme is defined as the amount of enzyme that transfers 1 μmole glucose from sucrose to the water-insoluble glucan in one minute.
Effects of some saccharides on the formation of water-insoluble glucan were tested: Water-insoluble glucan formation and inhibition thereof were determined according to the enzyme assay method as described in EXPERIMENT 1, except that the mixture solution contained sucrose, or sucrose and each saccharide as listed in TABLE I. The experiment was carried out as follows: A mixture solution, consisting of 1 ml of 4 w/v % aqueous sucrose solution, 1 ml of 4 w/v % aqueous solution of each saccharide as listed in TABLE I, 1.5 ml of 0.1M phosphate buffer containing 0.05 w/v % NaN3, and 0.5 ml of the enzyme solution (0.02 units), was incubated at 37° C. for 16 hours, and the water-insoluble glucan formation in the reaction mixture was determined according to the enzyme assy method.
In a control experiment, 1 ml of the above described saccharide solution was replaced with the same amount of water.
The inhibition degree was calculated with following equation:
Inhibition degree (%)=100-A/B×100
where A and B are respective amounts of the water-insoluble glucan formed (μg/ml) when the mixture solution contained sucrose or sucrose and each of the saccharides.

T1 sequence (P27470 39-1592): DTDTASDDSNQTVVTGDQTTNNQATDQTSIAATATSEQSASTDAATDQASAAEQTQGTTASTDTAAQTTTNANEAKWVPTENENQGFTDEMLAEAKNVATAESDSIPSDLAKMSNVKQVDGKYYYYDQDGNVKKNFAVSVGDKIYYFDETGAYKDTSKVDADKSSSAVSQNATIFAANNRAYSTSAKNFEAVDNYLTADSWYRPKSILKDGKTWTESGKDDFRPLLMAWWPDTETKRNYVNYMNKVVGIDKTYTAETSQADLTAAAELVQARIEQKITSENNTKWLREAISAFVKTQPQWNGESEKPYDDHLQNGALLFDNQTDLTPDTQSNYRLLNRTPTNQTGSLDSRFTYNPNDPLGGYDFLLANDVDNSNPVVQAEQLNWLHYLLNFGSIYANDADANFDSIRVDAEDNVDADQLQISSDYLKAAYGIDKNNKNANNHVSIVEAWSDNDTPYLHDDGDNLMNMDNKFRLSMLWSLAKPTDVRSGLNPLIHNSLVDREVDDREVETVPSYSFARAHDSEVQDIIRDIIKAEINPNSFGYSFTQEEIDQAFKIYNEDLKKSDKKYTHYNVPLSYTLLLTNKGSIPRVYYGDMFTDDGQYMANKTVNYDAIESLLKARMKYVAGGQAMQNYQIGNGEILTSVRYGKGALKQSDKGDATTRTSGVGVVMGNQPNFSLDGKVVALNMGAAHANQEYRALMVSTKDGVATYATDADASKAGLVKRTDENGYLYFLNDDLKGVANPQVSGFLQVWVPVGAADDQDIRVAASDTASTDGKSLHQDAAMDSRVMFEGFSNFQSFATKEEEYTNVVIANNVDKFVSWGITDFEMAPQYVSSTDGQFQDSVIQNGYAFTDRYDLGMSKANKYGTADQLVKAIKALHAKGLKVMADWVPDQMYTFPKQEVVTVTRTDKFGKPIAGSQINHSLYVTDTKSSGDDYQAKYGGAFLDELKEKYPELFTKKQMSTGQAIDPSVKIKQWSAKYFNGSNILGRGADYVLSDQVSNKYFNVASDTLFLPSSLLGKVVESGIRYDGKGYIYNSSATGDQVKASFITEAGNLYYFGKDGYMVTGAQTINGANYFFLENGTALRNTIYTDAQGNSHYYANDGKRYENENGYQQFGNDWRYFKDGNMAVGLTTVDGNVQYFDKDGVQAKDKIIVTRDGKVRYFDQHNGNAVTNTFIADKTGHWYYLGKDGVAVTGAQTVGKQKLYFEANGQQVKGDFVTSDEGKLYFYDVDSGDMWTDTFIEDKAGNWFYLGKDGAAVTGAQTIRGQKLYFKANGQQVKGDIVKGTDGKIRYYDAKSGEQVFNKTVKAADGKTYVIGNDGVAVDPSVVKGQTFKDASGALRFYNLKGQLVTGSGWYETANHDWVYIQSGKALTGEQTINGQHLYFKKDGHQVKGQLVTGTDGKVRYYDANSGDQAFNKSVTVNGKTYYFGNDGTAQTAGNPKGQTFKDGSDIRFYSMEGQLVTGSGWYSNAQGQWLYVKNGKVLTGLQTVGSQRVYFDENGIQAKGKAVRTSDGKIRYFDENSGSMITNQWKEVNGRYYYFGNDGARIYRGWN

SMILES | pH-Level of the reaction mixture (organic acid formation) [1] | B: inhibition degree on water-insoluble glucan formation [2] [%] | A: amounts of water-insoluble glucan formed [2] [µg/mL] | organic acid formation from the saccharide [1]
OC[C@H]1O[C@@H](O[C@@H]2[C@@H](CO)OC(O)(CO)[C@H]2O)[C@H](O)[C@@H](O)[C@H]1O (mixture of isomers) [Lactulose] | 7.0 | 12 | 264 | –
OC[C@H]1OC(O)C[C@@H](O)[C@@H]1O (some centres unmarked) [2-Deoxy Glucose] | 7.0 | 5 | 285 | –
OC[C@H]1O[C@@](CO)(OC[C@H]2O[C@@](CO)(O[C@H]3O[C@H](CO)[C@@H](O)[C@H](O)[C@H]3O)[C@@H](O)[C@@H]2O)[C@@H](O)[C@@H]1O [6-Kestose] | 6.8 | 3 | 291 | –
OC[C@H]1O[C@@H](O[C@H]2[C@H](O)[C@@H](O)C(O)O[C@@H]2CO)[C@H](O)[C@@H](O)[C@@H]1O (some centres unmarked) [Cellobiose] | 7.0 | – | – | –
OC[C@H]1OC(O)[C@H](O)[C@@H](O)[C@H]1O (stereo partly drawn) [D-Galactose] | 7.0 | – | – | –
OC[C@H]1OC(O)[C@H](O)[C@@H](O)[C@@H]1O (stereo partly drawn) [D-Glucose] | 4.0 | – | – | –
OC[C@H]1OC(O)[C@@H](O)[C@@H](O)[C@@H]1O (stereo partly drawn) [D-Mannose] | 5.5 | – | – | –
OC[C@@H](O)[C@@H](O)CO [Erythlitol] | 7.0 | 3 | 290 | –
OC[C@H]1O[C@@H](OC[C@H]2OC(O)[C@H](O)[C@@H](O)[C@@H]2O)[C@H](O)[C@@H](O)[C@@H]1O (some centres unmarked) [Gentiobiose] | 7.0 | – | 300 | –
OC[C@H](O)[C@@H](O)[C@H](O)[C@H](O)CO[C@H]1O[C@H](CO)[C@@H](O)[C@H](O)[C@H]1O [Isomaltitol] | 7.0 | 10 | 270 | –
OC[C@H](O)[C@@H](O)[C@H](O)[C@H](O)CO[C@H]1O[C@H](CO[C@H]2O[C@H](CO[C@H]3O[C@H](CO[C@H]4O[C@H](CO)[C@@H](O)[C@H](O)[C@H]4O)[C@@H](O)[C@H](O)[C@H]3O)[C@@H](O)[C@H](O)[C@H]2O)[C@@H](O)[C@H](O)[C@H]1O [Isomaltopentaitol, 6^3 -O-α-isomaltosyl isomaltotriitol] | 7.0 | – | 66 | no organic acid formation
OC[C@H]1O[C@H](OC[C@H]2OC(O)[C@H](O)[C@@H](O)[C@@H]2O)[C@H](O)[C@@H](O)[C@@H]1O (some centres unmarked) [Isomaltose] | 7.0 | – | 72 | –
OC[C@@H](O)[C@@H](O[C@H]1O[C@H](CO)[C@@H](O[C@H]2O[C@H](CO[C@H]3O[C@H](CO)[C@@H](O)[C@H](O)[C@H]3O)[C@@H](O)[C@H](O)[C@H]2O)[C@H](O)[C@H]1O)[C@H](O)[C@@H](O)CO [Isomaltosyl maltitol, 4^2 -O-α--isomaltosyl maltitol] | 7.0 | – | 48 | no organic acid formation
OC[C@H](O)[C@@H](O)[C@H](O)[C@H](O)CO[C@H]1O[C@H](CO[C@H]2O[C@H](CO[C@H]3O[C@H](CO)[C@@H](O)[C@H](O)[C@H]3O)[C@@H](O)[C@H](O)[C@H]2O)[C@@H](O)[C@H](O)[C@H]1O [Isomaltotetraitol, 6^2 -O-α-isomaltosyl isomaltitol] | 7.0 | – | 45 | no organic acid formation
OC[C@H](O)[C@@H](O)[C@H](O)[C@H](O)CO[C@H]1O[C@H](CO[C@H]2O[C@H](CO)[C@@H](O)[C@H](O)[C@H]2O)[C@@H](O)[C@H](O)[C@H]1O [Isomaltotriitol, 6-O-α-isomaltosyl glucitol] | 7.0 | – | 60 | no organic acid formation
OC[C@H](O)[C@@H](O)[C@H](O)[C@H](O)CO[C@H]1O[C@H](CO)[C@@H](O[C@H]2O[C@H](CO)[C@@H](O)[C@H](O)[C@H]2O)[C@H](O)[C@H]1O [Isopannitol] | 7.0 | 10 | 270 | –
OC[C@H]1O[C@H](O[C@H]2[C@H](O)[C@@H](O)[C@@H](OC[C@H]3OC(O)[C@H](O)[C@@H](O)[C@@H]3O)O[C@@H]2CO)[C@H](O)[C@@H](O)[C@@H]1O (some centres unmarked) [Isopanose] | 7.0 | 4 | 282 | –
OC1OC[C@H](O)[C@H](O)[C@H]1O (stereo partly drawn) [L-Arabinose] | 7.0 | 2 | 294 | –
O=C(CO)[C@@H](O)[C@H](O)[C@@H](O)CO [L-Sorbose] | 7.0 | 13 | 261 | –
OC[C@@H](O)[C@@H](O[C@@H]1O[C@H](CO)[C@H](O)[C@H](O)[C@H]1O)[C@H](O)[C@@H](O)CO [Lactitol] | 7.0 | – | – | –
OC[C@H]1O[C@@](CO)(OC[C@H]2O[C@](O)(CO)[C@@H](O)[C@@H]2O)[C@@H](O)[C@@H]1O [Levanbiose] | 6.5 | 4 | 288 | –
OC[C@@H](O)[C@@H](O[C@H]1O[C@H](CO)[C@@H](O)[C@H](O)[C@H]1O)[C@H](O)[C@@H](O)CO [Maltitol] | 7.0 | – | – | –
OC[C@@H](O)[C@@H](O[C@H]1O[C@H](CO)[C@@H](O[C@H]2O[C@H](CO)[C@@H](O[C@H]3O[C@H](CO)[C@@H](O[C@H]4O[C@H](CO)[C@@H](O)[C@H](O)[C@H]4O)[C@H](O)[C@H]3O)[C@H](O)[C@H]2O)[C@H](O)[C@H]1O)[C@H](O)[C@@H](O)CO [Maltopentaitol] | 7.0 | 12 | 265 | –
OC[C@H]1O[C@H](O[C@H]2[C@H](O)[C@@H](O)[C@H](O)O[C@@H]2CO)[C@H](O)[C@@H](O)[C@@H]1O [Maltose] | 4.0 | – | – | –
OC[C@@H](O)[C@@H](O[C@H]1O[C@H](CO)[C@@H](O[C@H]2O[C@H](CO)[C@@H](O[C@H]3O[C@H](CO)[C@@H](O)[C@H](O)[C@H]3O)[C@H](O)[C@H]2O)[C@H](O)[C@H]1O)[C@H](O)[C@@H](O)CO [Maltotetraitol] | – | 21 | 236 | –
OC[C@H]1O[C@@](CO)(O[C@H]2O[C@H](CO)[C@@H](O)[C@H](O)[C@H]2O)[C@@H](O)[C@@H]1O [Sucrose] | 4.0 | – | – | –

— patent US4518581A, “Imparting low- or anti-cariogenic property to orally-usable products” (Kabushiki Kaisha Hayashibara Seibutsu Kagaku Kenkyujo, priority 1981, dated 1985)
